Source: patent US20110280940A1, “Di-Vanilloyl And Tri-Vanilloyl Derivatives For Use In Anti-Cancer Therapy” (priority 2008, published 2011)

What was measured:
[1] = test system: A549 non-small-cell-lung cancer cell line; assay: Cellular imaging (quantitative videomicroscopy), global growth ratio, A549; type: cell-based; conditions: Homo sapiens, 72 h, read-out: Global Grow Ratio Treated/Ct (GGR T/Ct) determined by Video Quantitative microscopy, A549
Source text: (§1) As the MTT test is based on the mitochondria functions, we also investigated the effects of the di- and tri-vanilloyl derivatives according to the invention on cell proliferation, migration and morphology by means of a cellular imaging approach (Debeir et al., Cytometry 60:29-40, 2004; Debeir et al., IEEE Trans Med Imaging 24:697-711, 2005) either in the human U373-MG glioma cell line, which is apoptosis-resistant but autophagy-sensitive (Lefranc F et al., Neurosurgery 2008) and in the human A549 non-small-cell-lung cancer cell line, which is apoptosis-resistant and autophagy-resistant (Mijatovic T et al., Neoplasia 2006, May; 8(5):402-12).
Investigations have also been performed in human normal fibroblasts (WS1 and WI38—see Tables 4 and 5). Cellular imaging relied on the use of computer-assisted phase-contrast microscopy making possible to film the behaviour of living cells in culture dishes for several days.
Cells were seeded in a 25-cm^2 flask at a low density, treated or not with the vanilloyl-esters invention (at a concentration of 50 μM) and filmed thereafter for a period of 72 h. The experiment was conducted in quadruplicates (in duplicates for DLT-95 compounds).
The behaviour of the cells, in terms of morphology, growth and death were thus investigated. The effect on the overall growth was measured by counting the number of cells on the first (0 h) and the last image (72 h) of each film. The global growth ratio (GGR) was then deduced by dividing the number of cells on the last image by the number of cells on the first image. The ratio GGRtreated cells/GGRcontrol cells, was further calculated thereby obtaining a value that describes the effect of compounds of the present invention on the overall cell growth. The methodology is fully described and validated in Debeir et al., 2008, Exp Cell Res 314:2985-2998 and Mathieu et al., 2009, J Cell Mol Med, Feb. 20, 2009.
Illustrative pictures (time=0 h and 72 h) of glioblastoma and normal fibroblast cell line left untreated or treated with poly-vanillic compounds according to the invention (50 μM) are provided in FIG. 1 (U373 glioblastoma) and FIG. 2 (normal fibroblasts). The GGR parameter analyses confirmed the marked impairment of cell growth in both cancer cell lines of the poly-vanillic compounds according to the invention (Table 5).

[2] = test system: WI38 normal fibroblasts; assay: Cellular imaging (quantitative videomicroscopy), global growth ratio, WI38; type: cell-based, human; conditions: 50 μM, 72 h
Source text: as §1
Investigations have also been performed in human normal fibroblasts (WS1 and WI38—see Tables 4 and 5). Cellular imaging relied on the use of computer-assisted phase-contrast microscopy making possible to film the behaviour of living cells in culture dishes for several days. […]
The behaviour of the cells, in terms of morphology, growth and death were thus investigated. The effect on the overall growth was measured by counting the number of cells on the first (0 h) and the last image (72 h) of each film. […] The ratio GGRtreated cells/GGRcontrol cells, was further calculated thereby obtaining a value that describes the effect of compounds of the present invention on the overall cell growth. […]

[3] = target: T1, CDK5/p25 (Homo sapiens, UniProt Q00535); assay: Kinase activity assay, CDK5; type: biochemical; conditions: 10 μM, 1% DMSO, 15 μM ATP; residual activity
T1 construct: made in house
T1 sequence (Q00535 whole entry): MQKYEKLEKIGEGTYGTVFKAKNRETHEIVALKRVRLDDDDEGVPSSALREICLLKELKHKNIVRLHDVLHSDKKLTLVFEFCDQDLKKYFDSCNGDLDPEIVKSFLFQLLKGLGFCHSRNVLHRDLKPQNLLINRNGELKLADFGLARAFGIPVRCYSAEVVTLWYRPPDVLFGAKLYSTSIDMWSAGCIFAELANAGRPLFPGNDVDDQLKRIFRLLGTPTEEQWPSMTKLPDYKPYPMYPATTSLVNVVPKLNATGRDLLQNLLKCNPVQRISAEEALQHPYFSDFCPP
T1 sequence (Q15078 99-307 partner limits assumed): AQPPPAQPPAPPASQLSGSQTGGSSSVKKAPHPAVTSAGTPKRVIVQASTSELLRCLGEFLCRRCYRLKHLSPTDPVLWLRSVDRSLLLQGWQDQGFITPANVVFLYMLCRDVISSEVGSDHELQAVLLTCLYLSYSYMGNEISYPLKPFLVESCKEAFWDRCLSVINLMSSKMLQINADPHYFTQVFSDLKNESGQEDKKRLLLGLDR
Procedure: (§2) Buffer A: 10 mM MgCl2, 1 mM EGTA, 1 mM DTT, 25 mM Tris-HCl pH 7.5, 50 μg heparin/ml. Buffer C: 60 mM β-glycerophosphate, 15 mM p-nitrophenylphosphate, 25 mM Mops (pH 7.2), 5 mM EGTA, 15 mM MgCl2, 1 mM DTT, 1 mM sodium vanadate, 1 mM phenyl phosphate.
(§3) Kinase activities were assayed in Buffer A or C, at 30° C., at a final ATP concentration of 15 μM. Blank values were subtracted and activities expressed in % of the maximal activity, i.e. in the absence of inhibitors. Controls were performed with appropriate dilutions of DMSO.
CDK1/cyclin B (M phase starfish oocytes, native), CDK2/cyclin A, CDK2/cyclin E, CDK5/p25 and CDK7/cyclin H (human, recombinant) were prepared as previously described (Leclerc et al., 2001, J. Biol. Chem. 2001, 276, 251-260; Bach et al., 2005, J Biol Chem 280: 31208-31219). Their kinase activity was assayed in buffer C, with 1 mg histone H1/ml, in the presence of 15 μM [gamma-^33P] ATP (3,000 Ci/mmol; 10 mCi/ml) in a final volume of 30 μl. After 30 min incubation at 30° C., 25 μl aliquots of supernatant were spotted onto 2.5×3 cm pieces of Whatman P81 phosphocellulose paper, and, 20 sec later, the filters were washed five times (for at least 5 min each time) in a solution of 10 ml phosphoric acid/liter of water. The wet filters were counted in the presence of 1 ml ACS (Amersham) scintillation fluid.

[4] = target: pfGSK3 (Plasmodium falciparum, UniProt O77344); assay: Kinase activity assay, pfGSK3; type: biochemical; conditions: 10 μM, 1% DMSO, 15 μM ATP; residual activity
Sequence of pfGSK3 (O77344 1-440): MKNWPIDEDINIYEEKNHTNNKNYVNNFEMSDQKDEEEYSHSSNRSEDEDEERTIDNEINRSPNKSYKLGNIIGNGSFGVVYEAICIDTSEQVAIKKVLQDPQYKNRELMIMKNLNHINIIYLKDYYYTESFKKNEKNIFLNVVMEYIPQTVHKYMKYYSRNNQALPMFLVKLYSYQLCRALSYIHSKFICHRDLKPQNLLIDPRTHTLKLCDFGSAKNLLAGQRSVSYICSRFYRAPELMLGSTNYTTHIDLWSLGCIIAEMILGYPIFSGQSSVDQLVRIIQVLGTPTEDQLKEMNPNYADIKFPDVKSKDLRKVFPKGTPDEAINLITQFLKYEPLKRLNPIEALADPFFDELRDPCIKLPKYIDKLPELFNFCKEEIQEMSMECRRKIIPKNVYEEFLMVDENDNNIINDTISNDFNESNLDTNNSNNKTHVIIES
Procedure: as §2, §3

[5] = test system: CK1; assay: Kinase activity assay, CK1; type: biochemical, porcine; conditions: 10 μM, 1% DMSO, 15 μM ATP; residual activity
Procedure: as §2, §3
CK1 (porcine brain, native) was assayed as described for CDK1 but using the CK1-specific peptide substrate […]pSAYSITA (Seq. ID NO 2) (Reinhardt et al., 2007, Protein Expr. & Purif. 54, 101-109), obtained from Millegen (Labege, France).

[6] = target: DYRK1A (Rattus norvegicus, UniProt Q63470); assay: Kinase activity assay, DYRK1A (GST fusion, myelin basic protein substrate); type: biochemical
Procedure: as §2, §3
DYRK1A (rat, recombinant, expressed in E. coli as a GST fusion protein) was purified by affinity chromatography on glutathione-agarose and assayed as described for CDK1/cyclin B using myelin basic protein (1 mg/ml) as a substrate.

Structure (SMILES) | activity at 50 µM [1] [%] | Global Grow Ratio Treated/Ct (GGR T/Ct) determined by Video Quantitative microscopy, WI38 [2] | % ENZYMATIC ACTIVITY, CDK5 [3] [%] | % ENZYMATIC ACTIVITY, pfGSK3 [4] [%] | % ENZYMATIC ACTIVITY, Ckone [5] [%] | inhibition at 10 µM [6] [%] | % ENZYMATIC ACTIVITY, Dyrk1A ([6]; 10 μM, 1% DMSO, 15 μM ATP, residual activity) [%]
COc1cc(C(=O)OCCOC(=O)c2ccc(O)c(OC)c2)ccc1O [DLT1, Ethane-1,2-diyl bis-(4-hydroxy-3-methoxybenzoate)] | 50 | 0.8 | 87 | 92 | 62 | 51 | 49
COc1cc(C(=O)OCCCCCCOC(=O)c2ccc(O)c(OC)c2)ccc1O [DLT11, Hexane-1,6-diyl bis-(4-hydroxy-3-methoxybenzoate)] | 20 | – | – | – | – | – | –
